In ChEMBL document CHEMBL1201862, “PubChem BioAssay data set” (2004):
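Following 48 hours of exposure in 96-well plates, responses at five concentrations were used to interpolate endpoints linearly. GI50 = concentration required for 50% inhibition of growth.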 Calls of active or inactive are those of the source. Rule as the data show it: active = GI50 up to about 1.1 µM and inactive = higher.

Legend:
Experiment in all cases: NCI-60 cell line screen, 48 h
Malme-3M = system: Malme-3M
HOP-62 = system: HOP-62
SN12C = system: SN12C
COLO 205 = system: COLO 205
CAKI-1 = system: CAKI-1
RPMI-8226 = system: RPMI-8226
HT-29 = system: HT-29
SK-MEL-2 = system: SK-MEL-2
KM12 = system: KM12
SF-295 = system: SF-295
CCRF-CEM = system: CCRF-CEM
HCT-116 = system: HCT-116
HOP-92 = system: HOP-92
RXF 393 = system: RXF 393
NCI-H226 = system: NCI-H226
MDA-MB-231 = system: MDA-MB-231
MDA-MB-435 = system: MDA-MB-435
DU-145 = system: DU-145
T47D = system: T47D
MDA-N = system: MDA-N

| SMILES | GI50 (Malme-3M) | GI50 (HOP-62) | GI50 (SN12C) | GI50 (COLO 205) | GI50 (CAKI-1) | GI50 (RPMI-8226) | GI50 (HT-29) | GI50 (SK-MEL-2) | GI50 (KM12) | GI50 (SF-295) | GI50 (CCRF-CEM) | GI50 (HCT-116) | GI50 (HOP-92) | GI50 (RXF 393) | GI50 (NCI-H226) | GI50 (MDA-MB-231) | GI50 (MDA-MB-435) | GI50 (DU-145) | GI50 (T47D) | GI50 (MDA-N) |
| --- | --- | --- | --- | --- | --- | --- | --- | --- | --- | --- | --- | --- | --- | --- | --- | --- | --- | --- | --- | --- |
| CCc1cccc(C(C)CC)c1NC(=O)CC1C(=O)Nc2ccccc2S1(=O)=O (stereo not given) | 36.5 µM (inactive) | 36.8 µM (inactive) | 18.4 µM (inactive) | 20.9 µM (inactive) | 15.4 µM (inactive) | 5.38 µM (inactive) | 15.2 µM (inactive) | 64.6 µM (inactive) | 11.5 µM (inactive) | 25.1 µM (inactive) | 5.22 µM (inactive) |  |  |  |  |  |  |  |  |  |
| Nn1c(S)nnc1N/N=C1/C(=O)Nc2c(Cl)cc(Cl)cc21 | > 100 µM (inactive) | 50.4 µM (inactive) | 94.8 µM (inactive) | > 100 µM (inactive) | 69 µM (inactive) | > 100 µM (inactive) | > 100 µM (inactive) | > 100 µM (inactive) | > 100 µM (inactive) | > 100 µM (inactive) | 37.1 µM (inactive) | > 100 µM (inactive) | 73.1 µM (inactive) | 17.9 µM (inactive) | 52.1 µM (inactive) |  |  |  |  |  |
| CC1NOC(NS(=O)(=O)c2ccc(/N=N/c3c(O)c(C(=O)O)cc4ccccc34)cc2)C1C (stereo not given) | > 100 µM (inactive) | > 100 µM (inactive) |  | > 100 µM (inactive) | > 100 µM (inactive) | > 100 µM (inactive) | > 100 µM (inactive) | > 100 µM (inactive) | 57.8 µM (inactive) | > 100 µM (inactive) | > 100 µM (inactive) | > 100 µM (inactive) | > 100 µM (inactive) | > 100 µM (inactive) | > 100 µM (inactive) | > 100 µM (inactive) | > 100 µM (inactive) |  |  |  |
| CCOc1nc(OCC)nc(-c2cccn2-c2ccccc2)n1 | 21.4 µM (inactive) | 46.1 µM (inactive) | 45.6 µM (inactive) |  | 30.5 µM (inactive) |  | 34.6 µM (inactive) | 34.8 µM (inactive) | 28.5 µM (inactive) | 33.7 µM (inactive) | 29.6 µM (inactive) | 37.3 µM (inactive) |  | 29.5 µM (inactive) | 32.7 µM (inactive) |  |  |  |  |  |
| c1cc2sc1CSCCSCCSC2 |  | > 100 µM (inactive) | > 100 µM (inactive) | > 100 µM (inactive) |  |  | > 100 µM (inactive) |  | > 100 µM (inactive) | > 100 µM (inactive) | > 100 µM (inactive) | > 100 µM (inactive) | > 100 µM (inactive) |  |  | > 100 µM (inactive) | > 100 µM (inactive) | > 100 µM (inactive) | > 100 µM (inactive) |  |
| CC(=O)C1C(=O)C(=O)N(c2ccc([N+](=O)[O-])cc2Cl)C1=O (stereo not given) |  | > 100 µM (inactive) | > 100 µM (inactive) | > 100 µM (inactive) | > 100 µM (inactive) |  | > 100 µM (inactive) | > 100 µM (inactive) | > 100 µM (inactive) | > 100 µM (inactive) | > 100 µM (inactive) | > 100 µM (inactive) | 56.6 µM (inactive) | 97.9 µM (inactive) | > 100 µM (inactive) | > 100 µM (inactive) | > 100 µM (inactive) | > 100 µM (inactive) |  | > 100 µM (inactive) |
| COc1ccc(-c2c(C3=NCCCN3)nnn2-c2ccccc2)cc1 | > 100 µM (inactive) | > 100 µM (inactive) | > 100 µM (inactive) | > 100 µM (inactive) | > 100 µM (inactive) | > 100 µM (inactive) | > 100 µM (inactive) | > 100 µM (inactive) | > 100 µM (inactive) | > 100 µM (inactive) | > 100 µM (inactive) | > 100 µM (inactive) | 86.5 µM (inactive) | > 100 µM (inactive) | > 100 µM (inactive) |  |  |  |  |  |
| C[Si](C)(C)/C=C/CN1C(=O)CCC1O (stereo not given) | > 100 µM (inactive) | > 100 µM (inactive) | > 100 µM (inactive) | > 100 µM (inactive) | > 100 µM (inactive) | > 100 µM (inactive) | > 100 µM (inactive) | > 100 µM (inactive) | > 100 µM (inactive) | > 100 µM (inactive) | > 100 µM (inactive) | > 100 µM (inactive) | > 100 µM (inactive) | > 100 µM (inactive) | > 100 µM (inactive) |  |  |  |  |  |
| C/C=C\C(CC(=O)O)CC(=O)NCCC1CN(S(=O)(=O)C(F)(F)F)c2ccccc21 (stereo not given) | > 100 µM (inactive) | > 100 µM (inactive) |  | > 100 µM (inactive) | > 100 µM (inactive) | > 100 µM (inactive) | > 100 µM (inactive) | > 100 µM (inactive) | > 100 µM (inactive) | > 100 µM (inactive) | > 100 µM (inactive) | > 100 µM (inactive) | > 100 µM (inactive) | > 100 µM (inactive) |  | > 100 µM (inactive) | > 100 µM (inactive) | > 100 µM (inactive) |  | > 100 µM (inactive) |
| CC1OC(n2ccc(=O)[nH]c2=O)C=C(OC(=O)c2ccccc2)C1=O (stereo not given) | 74.6 µM (inactive) | 71.9 µM (inactive) | 88.3 µM (inactive) | > 100 µM (inactive) | 42.6 µM (inactive) | > 100 µM (inactive) | 44.6 µM (inactive) |  |  | 51.1 µM (inactive) | > 100 µM (inactive) |  | 30.2 µM (inactive) | 95.5 µM (inactive) |  |  |  |  |  |  |
| Nc1ccc2nc(Nc3ccc(Cl)c(Cl)c3)cnc2c1 | 18.5 µM (inactive) | 18.9 µM (inactive) | 14.9 µM (inactive) | 19.4 µM (inactive) | 28.8 µM (inactive) | 12.2 µM (inactive) | 16.2 µM (inactive) | 20 µM (inactive) | 15.6 µM (inactive) | > 10 µM (inactive) | 1.11 µM (active) | 18.1 µM (inactive) |  |  | 15.5 µM (inactive) |  |  |  |  |  |
| COc1ccc(OC)c(/C=C2/C(=O)N/C(=N\C(C)=O)N2C)c1 |  | > 100 µM (inactive) | > 100 µM (inactive) | > 100 µM (inactive) | > 100 µM (inactive) |  | > 100 µM (inactive) | > 100 µM (inactive) | > 100 µM (inactive) | > 100 µM (inactive) | > 100 µM (inactive) | > 100 µM (inactive) | > 100 µM (inactive) | > 100 µM (inactive) | > 100 µM (inactive) | > 100 µM (inactive) | > 100 µM (inactive) | > 100 µM (inactive) |  | > 100 µM (inactive) |
| FC(F)(F)c1cccc2ns[s+]c12 | > 100 µM (inactive) | > 100 µM (inactive) | > 100 µM (inactive) | > 100 µM (inactive) | > 100 µM (inactive) |  | > 100 µM (inactive) | > 100 µM (inactive) | > 100 µM (inactive) | > 100 µM (inactive) | > 100 µM (inactive) | > 100 µM (inactive) |  | > 100 µM (inactive) | > 100 µM (inactive) |  |  |  |  |  |
| O=C1OC(C(O)CO)C(C(O)CO)OC1=O (stereo not given) | > 10 µM (inactive) | > 10 µM (inactive) | > 10 µM (inactive) | > 10 µM (inactive) | > 10 µM (inactive) | > 10 µM (inactive) | > 10 µM (inactive) |  | > 10 µM (inactive) | > 10 µM (inactive) | > 10 µM (inactive) |  |  | > 10 µM (inactive) | > 10 µM (inactive) | > 10 µM (inactive) | > 10 µM (inactive) |  | > 10 µM (inactive) |  |
| C=CCNC(=S)OCCCCCCCCCC | 19.6 µM (inactive) | 21.7 µM (inactive) | 17.7 µM (inactive) |  | 19.1 µM (inactive) | 18.8 µM (inactive) | 18.6 µM (inactive) | 12.3 µM (inactive) | 12.4 µM (inactive) | 19.1 µM (inactive) | 15.7 µM (inactive) | 16.9 µM (inactive) |  | 15.5 µM (inactive) |  |  |  |  |  |  |
| CC(=O)OCC1OC(N=[N+]=[N-])C(OC(C)=O)C(OC(C)=O)C1OC1OC(COC(C)=O)C(OC(C)=O)C(OC(C)=O)C1OC(C)=O (stereo not given) | > 100 µM (inactive) |  | > 100 µM (inactive) | > 100 µM (inactive) | > 100 µM (inactive) | > 100 µM (inactive) | > 100 µM (inactive) | > 100 µM (inactive) | > 100 µM (inactive) | > 100 µM (inactive) | > 100 µM (inactive) |  |  | 35.7 µM (inactive) |  |  |  |  |  |  |
| COC(=O)c1csc(-c2nc(CCNC(=O)OC(C)(C)C)sc2Br)n1 | > 100 µM (inactive) | > 100 µM (inactive) | > 100 µM (inactive) | > 100 µM (inactive) |  | 99.3 µM (inactive) | > 100 µM (inactive) |  | > 100 µM (inactive) | > 100 µM (inactive) | > 100 µM (inactive) | > 100 µM (inactive) |  | > 100 µM (inactive) | > 100 µM (inactive) |  | > 100 µM (inactive) | > 100 µM (inactive) |  | > 100 µM (inactive) |
| O=C(c1ccccc1)c1c(C(F)(F)F)[n+]([O-])c2cc(F)c(F)cc2[n+]1[O-] | 0.161 µM (active) | 1.25 µM (inactive) |  | 3.86 µM (inactive) | 0.807 µM (active) | 0.679 µM (active) | 0.586 µM (active) | 1.79 µM (inactive) | 1.07 µM (active) | 0.946 µM (active) |  | 0.156 µM (active) | 0.238 µM (active) | 1 µM (active) | 1.73 µM (inactive) | 0.61 µM (active) | 1.53 µM (inactive) | 0.984 µM (active) | 1.79 µM (inactive) |  |
| CCOC(=O)c1c(-c2ccc(OC)c(O)c2)c(C#N)c(=S)n(C2OC(CO)C(O)C(O)C2O)c1-c1ccccc1 (stereo not given) |  | > 100 µM (inactive) | > 100 µM (inactive) | > 100 µM (inactive) | > 100 µM (inactive) | > 100 µM (inactive) | > 100 µM (inactive) |  | > 100 µM (inactive) | > 100 µM (inactive) | > 100 µM (inactive) | > 100 µM (inactive) |  | > 100 µM (inactive) | > 100 µM (inactive) |  | > 100 µM (inactive) | > 100 µM (inactive) |  | > 100 µM (inactive) |
